In ChEMBL document CHEMBL1201862, “PubChem BioAssay data set” (2004):
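In this assay, cells in 96-well plates receive the compound at five concentrations for 48 hours. Endpoints are linearly interpolated between the surrounding concentrations. At the GI50, growth is halved.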 Calls of active or inactive are those of the source. No stated cut-off is given here; in the data, active = GI50 up to about 1.1 µM and inactive = higher.

What was measured:
Test in all cases: NCI tumour cell line growth inhibition, 48 h
786-0 = tested on: 786-0
HCT-116 = tested on: HCT-116
HL-60 = tested on: HL-60
HT-29 = tested on: HT-29
MDA-N = tested on: MDA-N
NCI-H522 = tested on: NCI-H522
OVCAR-4 = tested on: OVCAR-4
SF-268 = tested on: SF-268
SK-MEL-28 = tested on: SK-MEL-28
SK-MEL-2 = tested on: SK-MEL-2
SK-MEL-5 = tested on: SK-MEL-5
SR = tested on: SR
UACC-62 = tested on: UACC-62
UO-31 = tested on: UO-31
HCT-15 = tested on: HCT-15
KM12 = tested on: KM12
SF-295 = tested on: SF-295
SF-539 = tested on: SF-539
SN12C = tested on: SN12C

SMILES | GI50 (786-0) | GI50 (HCT-116) | GI50 (HL-60) | GI50 (HT-29) | GI50 (MDA-N) | GI50 (NCI-H522) | GI50 (OVCAR-4) | GI50 (SF-268) | GI50 (SK-MEL-28) | GI50 (SK-MEL-2) | GI50 (SK-MEL-5) | GI50 (SR) | GI50 (UACC-62) | GI50 (UO-31) | GI50 (HCT-15) [µM] | GI50 (KM12) | GI50 (SF-295) | GI50 (SF-539) | GI50 (SN12C)
COc1ccc(/C=c2/sc3n(c2=O)C(c2ccccc2)C2(O)CCCCC2N=3)cc1 (stereo not drawn) | > 12.5 µM (inactive) | > 12.5 µM (inactive) | > 12.5 µM (inactive) | > 12.5 µM (inactive) | > 12.5 µM (inactive) | > 12.5 µM (inactive) | > 12.5 µM (inactive) | > 12.5 µM (inactive) | > 12.5 µM (inactive) | > 12.5 µM (inactive) | > 12.5 µM (inactive) | > 12.5 µM (inactive) | > 12.5 µM (inactive) | > 12.5 µM (inactive) |  |  |  |  | 
CN1c2ccccc2C(=O)Nc2cnc(Cl)nc21 | 35.8 µM (inactive) | > 100 µM (inactive) | > 100 µM (inactive) | > 100 µM (inactive) | > 100 µM (inactive) | 64.6 µM (inactive) | 93.1 µM (inactive) |  | > 100 µM (inactive) | > 100 µM (inactive) | > 100 µM (inactive) |  | > 100 µM (inactive) | > 100 µM (inactive) | > 100 | > 100 µM (inactive) | 46.3 µM (inactive) | 49.1 µM (inactive) | 66.7 µM (inactive)
Cc1nc(N)sc1/N=N/c1ccccc1Br | 36.6 µM (inactive) | 33.2 µM (inactive) | > 42.5 µM (inactive) | 35.9 µM (inactive) | 27.9 µM (inactive) | 14.2 µM (inactive) | > 35.3 µM (inactive) | 17.2 µM (inactive) | 33.1 µM (inactive) | 34 µM (inactive) | 31.3 µM (inactive) | 35.2 µM (inactive) | 28.6 µM (inactive) | 31 µM (inactive) | 33.7 | 33.5 µM (inactive) | 44.9 µM (inactive) | > 44.1 µM (inactive) | 34.8 µM (inactive)
COC(=O)CCC(=O)CC(=O)C(=O)Nc1c(Cl)cc([N+](=O)[O-])cc1Cl | > 100 µM (inactive) | 42.3 µM (inactive) | > 100 µM (inactive) | > 100 µM (inactive) |  | 45.3 µM (inactive) | > 100 µM (inactive) | > 100 µM (inactive) | > 100 µM (inactive) | > 100 µM (inactive) | > 100 µM (inactive) | 27.2 µM (inactive) | > 100 µM (inactive) | > 100 µM (inactive) | 55.6 | > 100 µM (inactive) | > 100 µM (inactive) | > 100 µM (inactive) | > 100 µM (inactive)
